In brackets after ≈: the same amount, converted by molar mass. Activity calls are given as the source filed them. The calls are words filed in the database; no cut-off is given here. Where a SMILES comes first, the peptide text is derived from it. [ ]: non-standard residue; d: D form. The star is where a group is joined. Benzoyl(4-(biphenyl-4-yl)) = O=C(c1ccc(-c2ccc(-c3ccccc3)cc2)cc1)*; Linoleoyl = CCCCC/C=C\C/C=C\CCCCCCCC(=O)*; NMeL = CN[C@@H](CC(C)C)C(=O)O; NMeV = CN[C@H](C(=O)O)C(C)C; X1 = Nc1ccc(/C=C/C(=O)*)cc1; Orn = NCCC[C@H](N)C(=O)O; 2Abz = Nc1ccccc1C(=O)O

Data set [1] is described as follows: Induction of membrane permeabilization in POPC/POPG (7:3 w/w) LUVs assessed as graded leakage of encapsulated calcein dye at 41.01 ug/ml after 5 mins by spectrofluorimeter analysis.
Another data set deals with Pseudomonas aeruginosa. The data set can be described thus: Antibacterial activity against Pseudomonas aeruginosa ATCC 25668 after 18 hrs by CLSI microdilution broth assay. In kind it is functional. The note with it: ATCC 25668, 18 h.
The subject of another data set is Bacillus subtilis. The data set can be described thus: Antibacterial activity against Bacillus subtilis ATCC 6633 after 18 hrs by CLSI microdilution broth assay. In kind it is functional. The note with it: ATCC 6633, 18 h.
Data set [2] has as its system Lipid bilayer. The data set is described as follows: Binding affinity to bacterial membrane mimic POPC/POPG (7:3 w/w) SUVs assessed as blue shift in tryptophan emission maxima at 3 uM after 2 mins by spectrofluorimeter analysis.
For data set [3], the system named is Lipid bilayer. The data set is described as follows: Binding affinity to mammalian membrane mimic POPC SUVs assessed as blue shift in tryptophan emission maxima at 3 uM after 2 mins by spectrofluorimeter analysis.
Data set [4] can be described thus: Hemolytic activity against human erythrocytes assessed as hemoglobin release up to 500 ug/ml after 1 hr by ELISA. The note with it: erythrocyte. Format: ADME, cell-based.
A further data set has as its system Escherichia coli. The data set is described as follows: Antibacterial activity against Escherichia coli ATCC 11775 after 18 hrs by CLSI microdilution broth assay. Format: functional. The note with it: ATCC 11775, 18 h.
The test system of data set [5] is Staphylococcus aureus. The data set is described as follows: Antibacterial activity against methicillin-resistant Staphylococcus aureus ATCC 33591 after 18 hrs by CLSI microdilution broth assay. Format: functional. The note with it: ATCC 33591, 18 h.
Data set [6] deals with Staphylococcus aureus. The data set is described as follows: Induction of membrane depolarization in methicillin-resistant Staphylococcus aureus ATCC 33591 at 12.5 ug/ml by DiSC3(5) dye by fluorimetric assay. Format: functional.
A further data set deals with Acinetobacter baumannii. The data set can be described thus: Antibacterial activity against Acinetobacter baumannii ATCC 19606 after 18 hrs by CLSI microdilution broth assay. Format: functional. The note with it: ATCC 19606, 18 h.
For data set [7], the system named is Staphylococcus aureus. The data set is described as follows: Antibacterial activity against Staphylococcus aureus ATCC 29213 after 18 hrs by CLSI microdilution broth assay. Format: functional. The note with it: ATCC 29213, 18 h.
The next data set concerns Candida albicans. The data set can be described thus: Antifungal activity against Candida albicans assessed as growth inhibition up to 125 ug/ml by disk diffusion method. Format: functional, organism-based.
Data set [8] is described as follows: Stability of the compound assessed as compound digestion at 100 ug/ml after 24 hrs by RP-HPLC analysis in presence of proteinase-K. Format: ADME. The note with it: read-out: Drug degradation.
In data set [9] the test system is Staphylococcus aureus. The data set is described as follows: Induction of membrane depolarization in methicillin-resistant Staphylococcus aureus ATCC 33591 at 7.5 ug/ml by DiSC3(5) dye by fluorimetric assay. In kind it is functional.
In data set [10] the test system is Staphylococcus aureus. The data set is described as follows: Induction of morphological alterations in methicillin-resistant Staphylococcus aureus ATCC 33591 assessed as cell clustering and ruptured membrane at 5XMIC after 30 mins by scanning electron microscopy. In kind it is functional, organism-based.
Data set [11] can be described thus: Induction of membrane permeabilization in POPC/POPG (7:3 w/w) LUVs assessed as burst release of calcein dye at 5.68 ug/ml after 5 mins by spectrofluorimeter analysis.
Data set [12] is described as follows: Binding affinity to gram-negative outer membrane LPS micelles by circular dichroism spectrophotometry.
The subject of the next data set is Aspergillus fumigatus. The data set can be described thus: Antifungal activity against Aspergillus fumigatus assessed as growth inhibition up to 125 ug/ml by disk diffusion method. In kind it is functional, organism-based.
Data set [13] relates to Staphylococcus aureus. The data set is described as follows: Induction of membrane depolarization in methicillin-resistant Staphylococcus aureus ATCC 33591 by DiSC3(5) dye by fluorimetric assay. In kind it is functional, organism-based.
Data set [14] is described as follows: Stability of the compound assessed as compound digestion at 100 ug/ml after 10 hrs by RP-HPLC analysis in presence of proteinase-K. In kind it is ADME. The note with it: read-out: Drug degradation.
Data set [15] has as its system Lipid bilayer. The data set can be described thus: Binding affinity to mammalian membrane mimic POPC SUVs assessed as red shift in tryptophan emission maxima at 3 uM after 2 mins by spectrofluorimeter analysis.
Data set [16] is described as follows: Induction of membrane permeabilization in POPC/POPG (7:3 w/w) LUVs assessed as leakage of encapsulated calcein dye at 14.01 ug/ml after 5 mins by spectrofluorimeter analysis.
A short description of data set [17]: Hemolytic activity against human erythrocytes assessed as hemoglobin release at 500 ug/ml after 1 hr by ELISA. Format: ADME, cell-based, Erythrocyte. The note with it: read-out: Activity.
In data set [18] the test system is Staphylococcus aureus. The data set can be described thus: Induction of morphological alterations in methicillin-resistant Staphylococcus aureus ATCC 33591 assessed as rough and damaged cell surface and formation of blebs and massive rupturing at 5XMIC after 30 mins by scanning electron microscopy. In kind it is functional, organism-based.
Data set [19] relates to Lipid bilayer. The data set is described as follows: Binding affinity to bacterial membrane mimic PC:PG (7:3 w/w) LUVs by circular dichroism spectrophotometry.

On to `NCCC[C@H](NC(=O)c1ccccc1N)C(=O)N[C@@H](CCCN)C(=O)N[C@@H](Cc1c[nH]c2ccccc12)C(=O)N[C@@H](Cc1c[nH]c2ccccc12)C(N)=O` (H-[2Abz][Orn][Orn]WW-NH2), for which the Activity was 69.9% in [1], 5 nm in the data set with Lipid bilayer [2], “Non-toxic” in [4] and 8.9% with Staphylococcus aureus [6]. Moreover, the minimal inhibitory concentration (MIC) against Pseudomonas aeruginosa is 16 µg/mL (≈ 21.7 µM); in the data set on Bacillus subtilis it was 64 µg/mL (≈ 86.9 µM); with Escherichia coli, 64 µg/mL (≈ 86.9 µM); in the data set on Staphylococcus aureus [5], 64 µg/mL (≈ 86.9 µM); with Acinetobacter baumannii it was 64 µg/mL (≈ 86.9 µM); against Staphylococcus aureus [7] it was 64 µg/mL (≈ 86.9 µM). Also, the Tryptophan emission maximum blue shift in the data set with Lipid bilayer [3] was found to be 1 nm.
On to `CN[C@@H](CC(C)C)C(=O)N[C@@H](CCCN)C(=O)N[C@@H](CCCN)C(=O)N[C@@H](Cc1c[nH]c2ccccc12)C(=O)N[C@@H](Cc1c[nH]c2ccccc12)C(N)=O` (H-[NMeL][Orn][Orn]WW-NH2), for which the minimum inhibitory concentration (MIC) was 128 µg/mL (≈ 172 µM) against Pseudomonas aeruginosa; 64 µg/mL (≈ 85.9 µM) against Bacillus subtilis; 64 µg/mL (≈ 85.9 µM) against Escherichia coli; 256 µg/mL (≈ 344 µM) against Staphylococcus aureus [5]; 128 µg/mL (≈ 172 µM) in the data set with Acinetobacter baumannii; 128 µg/mL (≈ 172 µM) against Staphylococcus aureus [7]. Moreover, the Activity in the data set with Lipid bilayer [2] is 4 nm; in [4], “Non-toxic”; in the data set with Staphylococcus aureus [6], 18.9%. Besides, in the data set with Lipid bilayer [3], the Tryptophan emission maximum blue shift came to 1 nm.
`CN[C@H](C(=O)N[C@@H](CCCN)C(=O)N[C@@H](CCCN)C(=O)N[C@@H](Cc1c[nH]c2ccccc12)C(=O)N[C@@H](Cc1c[nH]c2ccccc12)C(N)=O)C(C)C` (H-[NMeV][Orn][Orn]WW-NH2): the Activity in data set [1] was 41.8%; in the data set on Lipid bilayer [2], 3 nm; in [4], “Non-toxic”; in the data set with Staphylococcus aureus [6], 17.2%. In addition, the MIC with Pseudomonas aeruginosa was 128 µg/mL (≈ 175 µM); in the data set on Bacillus subtilis, 128 µg/mL (≈ 175 µM); in the data set with Escherichia coli, 256 µg/mL (≈ 350 µM); against Staphylococcus aureus [5], 256 µg/mL (≈ 350 µM); with Acinetobacter baumannii, 64 µg/mL (≈ 87.6 µM); against Staphylococcus aureus [7], 128 µg/mL (≈ 175 µM). Further, in the data set on Lipid bilayer [3], the Tryptophan emission maximum blue shift worked out at 0 nm.
For the compound `NCCC[C@H](NC(=O)[C@@H](N)CCCN)C(=O)N[C@@H](Cc1c[nH]c2ccccc12)C(=O)N[C@@H](Cc1c[nH]c2ccccc12)C(N)=O` (H-[Orn][Orn]WW-NH2), the minimum inhibitory concentration (MIC) against Pseudomonas aeruginosa is 256 µg/mL (≈ 414 µM); in the data set with Bacillus subtilis, 512 µg/mL (≈ 829 µM); with Escherichia coli, 512 µg/mL (≈ 829 µM); in the data set on Acinetobacter baumannii it was 512 µg/mL (≈ 829 µM); against Staphylococcus aureus [7] it was 128 µg/mL (≈ 207 µM). Besides, the Activity in the data set on Lipid bilayer [2] was 3 nm; in data set [4] it was “Non-toxic”; with Staphylococcus aureus [6], 5.6%. Besides, in the data set on Lipid bilayer [3], the Tryptophan emission maximum blue shift stood at 2 nm.
With `CCCCC/C=C\C/C=C\CCCCCCCC(=O)N[C@@H](CCCN)C(=O)N[C@@H](CCCN)C(=O)N[C@@H](Cc1c[nH]c2ccccc12)C(=O)N[C@@H](Cc1c[nH]c2ccccc12)C(N)=O` (Linoleoyl-[Orn][Orn]WW-NH2), the “growth inhibition (GI)” value with Candida albicans and in the data set with Aspergillus fumigatus was “inactive” in each case. In addition, the metabolised at 24 h, 100 ug/ml in data set [8] came out at 36%. For the same compound, the Activity in the data set on Staphylococcus aureus [9] is 84%; in [11], 72.3%; in the data set with Lipid bilayer [2] it was 10 nm; in [4] it was “Non-toxic”; in the data set on Staphylococcus aureus [13], “Dose-dependent effect”; with Staphylococcus aureus [6], 100%. The outcome (with Staphylococcus aureus [10]; in data set [12]) was Active. The minimum inhibitory concentration (MIC) against Pseudomonas aeruginosa was found to be 2 µg/mL (≈ 2.27 µM); in the data set with Bacillus subtilis it was 4 µg/mL (≈ 4.54 µM); against Escherichia coli it was 2 µg/mL (≈ 2.27 µM); against Staphylococcus aureus [5], 4 µg/mL (≈ 4.54 µM); against Acinetobacter baumannii, 2 µg/mL (≈ 2.27 µM); with Staphylococcus aureus [7] it was 2 µg/mL (≈ 2.27 µM). In addition, in the data set with Lipid bilayer [3], the Tryptophan emission maximum blue shift was determined as 2 nm. For the same compound, the metabolised at 10 h, 100 ug/ml in data set [14] worked out at 17%.
Take `NCCC[C@H](NC(=O)/C=C/c1ccc(N)cc1)C(=O)N[C@@H](CCCN)C(=O)N[C@@H](Cc1c[nH]c2ccccc12)C(=O)N[C@@H](Cc1c[nH]c2ccccc12)C(N)=O` (X1-[Orn][Orn]WW-NH2): the Activity in the data set on Lipid bilayer [15] was 2 nm; in data set [11] it was 58.5%; in data set [16], 68.3%; with Lipid bilayer [2], 2 nm; in data set [4], “Non-toxic”; in the data set with Staphylococcus aureus [6], 16.8%. In addition, the MIC with Pseudomonas aeruginosa turned out to be 16 µg/mL (≈ 21 µM); against Bacillus subtilis, 32 µg/mL (≈ 41.9 µM); against Escherichia coli, 32 µg/mL (≈ 41.9 µM); against Staphylococcus aureus [5], 128 µg/mL (≈ 168 µM); against Acinetobacter baumannii, 64 µg/mL (≈ 83.9 µM); in the data set with Staphylococcus aureus [7] it was 64 µg/mL (≈ 83.9 µM).
On to `NCCC[C@H](NC(=O)c1ccc(-c2ccc(-c3ccccc3)cc2)cc1)C(=O)N[C@@H](CCCN)C(=O)N[C@@H](Cc1c[nH]c2ccccc12)C(=O)N[C@@H](Cc1c[nH]c2ccccc12)C(N)=O` ({Benzoyl(4-(biphenyl-4-yl))}-[Orn][Orn]WW-NH2), for which the “growth inhibition (GI)” value with Candida albicans and with Aspergillus fumigatus was “inactive” throughout. Also, the Activity is 81% in the data set on Staphylococcus aureus [9], 76.4% in data set [11], 30 nm in the data set on Lipid bilayer [2] and “Dose-dependent effect” in the data set on Staphylococcus aureus [13]. The MIC in the data set with Pseudomonas aeruginosa is 4 µg/mL (≈ 4.58 µM); with Bacillus subtilis, 2 µg/mL (≈ 2.29 µM); against Escherichia coli, 2 µg/mL (≈ 2.29 µM); in the data set on Staphylococcus aureus [5], 8 µg/mL (≈ 9.15 µM); against Acinetobacter baumannii it was 2 µg/mL (≈ 2.29 µM); against Staphylococcus aureus [7], 2 µg/mL (≈ 2.29 µM). Further, in the data set with Lipid bilayer [3], the Tryptophan emission maximum blue shift amounted to 2 nm. In addition, in [17], the hemolysis at 1 h, 500 ug/ml came out at 50%. Moreover, the metabolised at 10 h, 100 ug/ml in data set [14] is 14%. Further, the result in the data set on Staphylococcus aureus [18] and in the data set with Lipid bilayer [19] was Active.
In the case of `CN(C)[C@@H]1C(O)=C(C(N)=O)C(=O)[C@@]2(O)C(O)=C3C(=O)c4c(O)cccc4[C@@](C)(O)[C@H]3C[C@@H]12` [TETRACYCLINE], the minimal inhibitory concentration (MIC) in the data set with Pseudomonas aeruginosa was 0.3 µg/mL (≈ 0.675 µM); against Escherichia coli it was 0.3 µg/mL (≈ 0.675 µM); against Staphylococcus aureus [5], more than 50 µg/mL; in the data set on Staphylococcus aureus [7], 0.3 µg/mL (≈ 0.675 µM).

The values above are taken from ChEMBL document CHEMBL3217464, “Antimicrobial activity and mode of action of novel, N-terminal tagged tetra-peptidomimetics” (Medchemcomm, 2013).
